Data: US10829464B2, “Benzoheterocyclic alkylamine compounds and use thereof” (priority 2016, dated 2020)
Values after ≈ are worked out from the molar mass of the structure shown. Where a name gives a salt, the structure may show the parent alone. Values belong to the compound of their own block, whether it stands above or below them.

Tests used:
Microsporum gypseum = assay: In vitro antifungal assay (micro liquid-based dilution); format: cell-based; conditions: Nannizzia gypsea, read-out: Antifungal Activities, MIC80
Trichophyton rubrum = assay: as above; format: cell-based; conditions: read-out: Antifungal Activities, MIC80
Tinea barbae = assay: as above; format: cell-based; conditions: read-out: Antifungal Activities, MIC80
[1] = test system: Staphylococcus aureus subsp. aureus str. strain Newman; assay: Preliminary screening assay of inhibition of staphyloxanthin synthesis; format: cell-based; conditions: 50, 10, 5, 2.5, 1.25, 0.625, 0.3125 and 0 μM from left to right
Description: Strains used for assay: freshly activated wild-type Staphylococcus aureus subsp. aureus str. strain Newman and its homologous mutant strain having crtN insertion (without staphyloxanthin synthesis).
Medium for assay: Tryptone Soy broth (TSB), a product from Oxid Corporation, the United Kingdom, which was formulated with distilled water, sterilized at 121° C. for 15 min for later use.
Method of Preliminary Screening Assay:
(1) Preparation of compound: the compound of the invention was dissolved in dimethyl sulfoxide (DMSO) to prepare a stock solution having a concentration of 10 mM; 400 μL of DMSO was added to 100 μL of the stock solution to get a dilution with a concentration of 2 mM; 250 μL (2 mM) of the dilution was taken after mixing, and an equal amount of DMSO was added thereto for 2-fold dilution to get a solution with a concentration of […] for later use.
(2) Culture of the strain: single colonies of strain Newman were picked from TSA plates into a test tube containing 4 mL of sterile TSB medium, and cultured at 37° C. and 250 rpm for 12 h for later use.

S. aureus strain Newman = assay: IC50 determination of inhibition of staphyloxanthin synthesis; format: cell-based; conditions: Staphylococcus aureus; S. aureus strain Newman, Table 1; read-out: IC50, inhibitory activity on staphyloxanthin synthesis
Description: Selection of compound concentrations: based on the preliminary screening results, the ability of each compound to inhibit staphyloxanthin synthesis was determined. […] According to the assay results, 10 different concentration gradients were designed for each compound, such that the ability to inhibit staphyloxanthin synthesis comprised substantially from 0% to 100%.
Culture of the strains: single colonies of strain Newman and crtN mutant strain were picked from TSA plates, added into test tubes containing 4 mL of sterile TSB medium, and cultured at 37° C. and 250 rpm for 12 h for later use.
The relative level of staphyloxanthin synthesis at each concentration of the compound of the invention=A450 (sample)/A450 (negative control)*100%. With the molar concentration of the compound as the abscissa and the relative level of staphyloxanthin synthesis as the ordinate, a curve fitting of inhibitor concentration-inhibition rate (log(inhibitor) vs response) was performed in Graphpad prism 5.0 software, and the IC50 of the compound for inhibiting staphyloxanthin synthesis was calculated by software based on the fitting results.
S. aureus was selected for IC50 determination with respect to activity of inhibiting staphyloxanthin synthesis. […]

NRS271 = assay: In vivo pharmacodynamics evaluation in infected mice; conditions: BALB/c mice infected retroorbitally with NRS271
Description: (§1) Compound IA-25 was used as a representative compound. The laboratory SPF-grade female BALB/c mice were purchased from Shanghai Jiesijie Laboratory Animal Co., Ltd. and bred under aseptic condition to 6-8 weeks old. The S. aureus strains which had been cultured overnight were transferred to fresh and sterile TSB medium and cultured at 37° C. and 250 rpm for 3 h to exponential growth phase; the culture was washed twice with PBS buffer, and then suspended in PBS for later use. In the mouse infection assay, the mice were divided into several groups, each containing 10 mice.

LRSA202 = assay: as above; conditions: BALB/c mice infected retroorbitally with LRSA202
Description: as §1

Mu50 = assay: as above; conditions: BALB/c mice infected retroorbitally with Mu50
Description: as §1

NF65Y = assay: as above; conditions: BALB/c mice infected retroorbitally with NF65Y
Description: as §1

strain Newman = assay: as above; conditions: BALB/c mice infected retroorbitally with Newman
Description: as §1

NRS108 = assay: as above; conditions: BALB/c mice infected retroorbitally with NRS108
Description: as §1

LRSA56 = assay: as above; conditions: BALB/c mice infected retroorbitally with LRSA56
Description: as §1

CYP enzyme subtype 2C19 = CYP enzyme subtype 2C19 (Homo sapiens, UniProt P33261); assay: Inhibition assay on hepatic CYP450 enzyme; format: in vitro ADME; conditions: CYP 2C19; read-out: Half inhibitory concentration (IC50)
Sequence of CYP enzyme subtype 2C19 (P33261 whole entry): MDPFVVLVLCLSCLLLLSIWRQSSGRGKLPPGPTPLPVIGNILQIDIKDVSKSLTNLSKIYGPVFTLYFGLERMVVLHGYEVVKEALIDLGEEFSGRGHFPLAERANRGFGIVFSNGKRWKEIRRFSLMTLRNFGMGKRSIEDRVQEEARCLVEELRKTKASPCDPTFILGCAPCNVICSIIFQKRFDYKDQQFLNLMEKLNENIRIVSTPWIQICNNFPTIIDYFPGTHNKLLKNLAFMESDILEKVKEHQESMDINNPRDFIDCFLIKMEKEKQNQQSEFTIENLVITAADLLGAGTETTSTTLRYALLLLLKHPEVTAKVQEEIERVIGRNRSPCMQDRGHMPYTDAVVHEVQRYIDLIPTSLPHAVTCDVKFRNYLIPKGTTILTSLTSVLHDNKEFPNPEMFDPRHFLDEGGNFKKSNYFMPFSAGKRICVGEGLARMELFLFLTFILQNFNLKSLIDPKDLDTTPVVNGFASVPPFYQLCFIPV

[2] = test system: wild-type S. aureus Newman strain; assay: Verification assay using CrtN as a target (HPLC of carotenoid extract); format: cell-based, Staphylococcus aureus; conditions: 100 μM added to wild-type strain Newman, 440 nm
HepG2 = assay: In vitro cytotoxicity assay
HEK293 = assay: In vitro cytotoxicity assay

MIC80 (Microsporum gypseum): 2 µg/mL (≈ 3.76 µM)
MIC80 (Trichophyton rubrum): 0.5 µg/mL (≈ 0.941 µM)
MIC80 (Tinea barbae): 0.0625 µg/mL (≈ 0.118 µM)
SMILES: CC(=O)N1CCN(c2ccc(OCC3COC(Cn4ccnc4)(c4ccc(Cl)cc4Cl)O3)cc2)CC1 (stereo not drawn) [Ketoconazole]

SMILES: CN(Cc1coc2ccccc12)C[C@@H]1C[C@H]1c1ccc(-c2ccccc2)cc1 [Compound IC-1, 1-((1R,2R)-2-([1,1′-biphenyl]-4-yl)cyclopropyl)-N-(benzofuran-3-ylmethyl)-N-methylmethanamine]
colors in final photograph of inhibition of staphyloxanthin synthesis [1]: white to yellow from left to right gradually
IC50 (S. aureus strain Newman): > 1000 nM

SMILES: CN[C@H](CC(C)C)C(=O)N[C@H]1C(=O)N[C@@H](CC(N)=O)C(=O)N[C@H]2C(=O)N[C@H]3C(=O)N[C@H](C(=O)N[C@H](C(=O)O)c4cc(O)cc(O)c4-c4cc3ccc4O)[C@H](O)c3ccc(c(Cl)c3)Oc3cc2cc(c3O[C@@H]2O[C@H](CO)[C@@H](O)[C@H](O)[C@H]2O[C@H]2C[C@](C)(N)[C@H](O)[C@H](C)O2)Oc2ccc(cc2Cl)[C@H]1O [Vancomycin]
Viable colony counts in vivo (NRS271): 6.5 Log10CFU
Viable colony counts in vivo (LRSA202): 5.3 Log10CFU
Viable colony counts in vivo (Mu50): 5.4 Log10CFU
Viable colony counts in vivo (NF65Y): 4.6 Log10CFU
Viable colony counts in vivo (strain Newman): 4.3 Log10CFU
Viable colony counts in vivo (NRS108): 2.4 Log10CFU
Viable colony counts in vivo (LRSA56): 3.8 Log10CFU

IC50 (CYP enzyme subtype 2C19): 3880 nM
SMILES: COc1ccc2[nH]c([S+]([O-])Cc3ncc(C)c(OC)c3C)nc2c1 (stereo not drawn) [omeprazole, reference compound]

SMILES: COC(=O)c1ccc(/C=C/CN(C)Cc2coc3ccccc23)cc1 [Compound IA-13, (E)-N-methyl-N-[(benzofuran-3-yl)methylene]-3-(4-methylcarboxylatephenyl)prop-2-en-1-amine]
IC50 (S. aureus strain Newman): 9.45 ± 0.75 nM

SMILES: CN(C/C=C/c1ccccc1)Cc1cccc2ccccc12 [naftifine hydrochloride, reference compound]
HPLC absorption peaks of carotenoid extract [2]: absorption peaks at the original peak position disappeared again

SMILES: CN(CC#Cc1ccc(-c2ccccc2)cc1)Cc1coc2ccccc12 [Compound ID-1]
IC50 (S. aureus strain Newman): > 1000 nM

MIC80 (Microsporum gypseum): 0.25 µg/mL (≈ 0.716 µM)
MIC80 (Trichophyton rubrum): 0.0312 µg/mL (≈ 0.0895 µM)
MIC80 (Tinea barbae): 0.0312 µg/mL (≈ 0.0895 µM)
SMILES: C[C@@H](c1ncncc1F)[C@](O)(Cn1cncn1)c1ccc(F)cc1F [Voriconazole]

SMILES: C[C@@H]1[C@H](O)[C@@H](C)/C=C/C=C/C=C/C=C/C=C/C=C/C=C/[C@H](O[C@@H]2O[C@H](C)[C@@H](O)[C@H](N)[C@@H]2O)C[C@@H]2O[C@](O)(C[C@@H](O)C[C@@H](O)[C@H](O)CC[C@@H](O)C[C@@H](O)CC(=O)O[C@H]1C)C[C@H](O)[C@H]2C(=O)O [Amphotericin B]
CC50 of compounds on cells (HepG2): 2.956 µg/mL
CC50 of compounds on cells (HEK293): 3.923 µg/mL

MIC80 (Microsporum gypseum): 8 µg/mL (≈ 26.1 µM)
MIC80 (Trichophyton rubrum): 1 µg/mL (≈ 3.27 µM)
MIC80 (Tinea barbae): 2 µg/mL (≈ 6.53 µM)
SMILES: OC(Cn1cncn1)(Cn1cncn1)c1ccc(F)cc1F [Fluconazole]

SMILES: CCOc1ccc(/C=C/CN(C)Cc2coc3ccccc23)cc1 [Compound IA-17, (E)-N-methyl-N-[(benzofuran-3-yl)methylene]-3-(4-ethoxyphenyl)-prop-2-en-1-amine]
IC50 (S. aureus strain Newman): > 1000 nM

SMILES: Cc1cccc(/C=C/CN(C)Cc2coc3ccccc23)c1 [Compound IA-37, (E)-N-methyl-N-[(benzofuran-3-yl)methylene]-3-(3-methylphenyl)-prop-2-en-1-amine]
IC50 (S. aureus strain Newman): > 1000 nM

SMILES: CC(=O)NC[C@H]1CN(c2ccc(N3CCOCC3)c(F)c2)C(=O)O1 [Linezolid]
Viable colony counts in vivo (NRS271): 8.3 Log10CFU
Viable colony counts in vivo (LRSA202): 4.6 Log10CFU
Viable colony counts in vivo (Mu50): 3.1 Log10CFU
Viable colony counts in vivo (NF65Y): 5.1 Log10CFU
Viable colony counts in vivo (strain Newman): 4.9 Log10CFU
Viable colony counts in vivo (NRS108): 2.3 Log10CFU
Viable colony counts in vivo (LRSA56): 4.6 Log10CFU
